Source: patent US8648208B2, “Activating agent for peroxisome proliferator activated receptor” (Nippon Chemiphar Co. Ltd., priority 2008, dated 2014)
Like-named read-outs stand apart in the source and are kept apart here.

What was measured:
Assay type in all cases: cell-based
[1] = molecular target: T1, hPPARγ (LBD) (Homo sapiens, UniProt P37231); test: PPAR activating effect, GAL4-hPPARγ LBD luciferase reporter transfection in CV-1 cells; details: for EC50: Table 25, method of Example 29, read-out: PPAR activity (EC50) γ
T1 construct: A receptor expression plasmid (pSG5-GAL4-hPPARα or γ or δ (LBD)); GAL4 (fusion partner); expressed in transfected cells; host or cells: CV-1 cells (ATCC)
T1 sequence (P37231 238-503 limits assumed): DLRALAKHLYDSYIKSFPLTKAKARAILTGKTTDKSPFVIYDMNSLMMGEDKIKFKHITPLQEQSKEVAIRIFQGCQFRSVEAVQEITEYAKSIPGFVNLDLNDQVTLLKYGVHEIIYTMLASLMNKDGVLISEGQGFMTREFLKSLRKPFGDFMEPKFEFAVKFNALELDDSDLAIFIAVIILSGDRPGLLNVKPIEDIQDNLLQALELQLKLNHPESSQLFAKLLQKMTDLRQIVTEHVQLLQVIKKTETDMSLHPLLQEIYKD

[2] = molecular target: T2, hPPARα (LBD) (Homo sapiens, UniProt Q07869); test: PPAR activating effect, GAL4-hPPARα LBD luciferase reporter transfection in CV-1 cells; details: for PPAR activity α (relative value to control compound): 100% = GW-590735 10^-6 M; for EC50: Table 25, method of Example 29, read-out: PPAR activity (EC50) α
T2 construct: A receptor expression plasmid (pSG5-GAL4-hPPARα or γ or δ (LBD)); GAL4 (fusion partner); expressed in transfected cells; host or cells: CV-1 cells (ATCC)
T2 sequence (Q07869 239-466 limits assumed): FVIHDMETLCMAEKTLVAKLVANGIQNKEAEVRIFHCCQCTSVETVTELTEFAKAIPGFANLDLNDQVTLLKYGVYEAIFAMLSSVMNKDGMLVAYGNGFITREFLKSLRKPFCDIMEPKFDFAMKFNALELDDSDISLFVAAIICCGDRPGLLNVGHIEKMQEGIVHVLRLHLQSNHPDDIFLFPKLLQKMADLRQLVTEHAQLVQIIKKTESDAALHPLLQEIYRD

[3] = molecular target: T3, hPPARδ (LBD) (Homo sapiens, UniProt Q03181); test: PPAR activating effect, GAL4-hPPARδ LBD luciferase reporter transfection in CV-1 cells; parameters: activation: dose or concentration left out as unconfirmed; details: for EC50: Table 25, method of Example 29, read-out: PPAR activity (EC50) δ; for selectivity of PPAR δ-activating effect: compared with GW-501516, from EC50 α, γ, δ of Table 25
T3 construct: A receptor expression plasmid (pSG5-GAL4-hPPARα or γ or δ (LBD)); GAL4 (fusion partner); expressed in transfected cells; host or cells: CV-1 cells (ATCC)
T3 sequence (Q03181 211-439 limits assumed): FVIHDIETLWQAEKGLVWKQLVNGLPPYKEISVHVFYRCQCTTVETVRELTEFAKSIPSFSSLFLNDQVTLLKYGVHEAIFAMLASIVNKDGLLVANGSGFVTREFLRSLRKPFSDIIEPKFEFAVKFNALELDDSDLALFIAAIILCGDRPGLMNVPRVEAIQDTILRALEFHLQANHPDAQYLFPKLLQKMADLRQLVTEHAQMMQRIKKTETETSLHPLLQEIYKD

[4] = Table 26, test compound 10^-7 M, 100% = Rosiglitazone 10^-5 M
[5] = Table 26, test compound 10^-7 M
[6] = CV-1, 40 h, read-out: PPAR activity δ (relative value to control compound)
[7] = Table 24, 100% = Rosiglitazone 10^-5 M, CV-1 cells, approx. 40 h
[8] = Table 24, CV-1 cells, approx. 40 h

Row | Compound | activation [3, 6] | PPAR activity γ (relative value to control compound) [1, 7] | PPAR activity α (relative value to control compound) [2, 8] | also measured
1 | 2-[3-[2-[3-Isopropyl-6-(trifluoromethyl)benzothiophen-2-yl]ethyl]benzisoxazol-6-yloxy]propionic acid [Example 27] |  |  |  | PPAR activity γ (relative value to control compound) [1, 4]: Inactive; PPAR activity α (relative value to control compound) [2, 5]: Inactive
2 | Cc1cc(C(=O)CCc2sc3ccc(C(F)(F)F)cc3c2C)ccc1OCC(=O)O [Example 3, 2-Methyl-4-[3-[3-methyl-5-(trifluoromethyl)-benzothiophen-2-yl]propionyl]phenoxyacetic acid] | 4.4% | Inactive | Inactive | 
3 | Cc1cc(C(=O)CCc2sc3ccc(C(F)(F)F)cc3c2C)ccc1OC(C)(C)C(=O)O [Example 4, 2-Methyl-2-[2-methyl-4-[3-[3-methyl-5-(trifluoromethyl)-benzothiophen-2-yl]propionyl]phenoxy]propionic acid] | 19.2% | 9.0% |  | 
4 | Cc1cc(C(=O)CCc2sc3cc(C(F)(F)F)ccc3c2C)ccc1OCC(=O)O [Example 5, 2-Methyl-4-[3-[3-methyl-6-(trifluoromethyl)-benzothiophen-2-yl]propionyl]phenoxyacetic acid] | 23% | Inactive | Inactive | 
5 | Cc1cc(C(=O)CCc2sc3cc(C(F)(F)F)ccc3c2C)ccc1OC(C)(C)C(=O)O [Example 6] |  |  | Inactive | PPAR activity δ (relative value to control compound) ([3]; Table 24, 100% = GW-501516 10^-7 M, CV-1 cells, approx. 40 h): 40.8%; PPAR activity γ (relative value to control compound) [1]: Inactive
6 | Cc1cc(C(=O)CCc2sc3cc(C(F)(F)F)ccc3c2C)ccc1CCC(=O)O [Example 7, 3-[4-[3-[3-Methyl-6-(trifluoromethyl)-benzothiophen-2-yl]propionyl]-2-methylphenyl]propionic acid] | 51.4% | Inactive | Inactive | 
7 | CCc1c(CCC(=O)c2ccc(CCC(=O)O)c(C)c2)sc2cc(C(F)(F)F)ccc12 [Example 8, 3-[4-[3-[3-Ethyl-6-(trifluoromethyl)benzothiophen-2-yl]propionyl]-2-methylphenyl]propionic acid] | 81% | Inactive | Inactive | 
8 | CCCc1c(CCC(=O)c2ccc(CCC(=O)O)c(C)c2)sc2cc(C(F)(F)F)ccc12 [Example 9, 3-[2-Methyl-4-[3-[3-propyl-6-(trifluoromethyl)benzothiophen-2-yl]propionyl]phenyl]propionic acid] | 83.5% | 1.3% | Inactive | 
9 | CCCCc1c(CCC(=O)c2ccc(CCC(=O)O)c(C)c2)sc2cc(C(F)(F)F)ccc12 [Example 10, 3-[2-Methyl-4-[3-[3-butyl-6-(trifluoromethyl)benzothiophen-2-yl]propionyl]phenyl]propionic acid] | 66.1% | 2.2% | Inactive | 
10 | Cc1cc(C(=O)CCc2sc3cc(C(F)(F)F)ccc3c2CC(C)C)ccc1CCC(=O)O [Example 11, 3-[2-Methyl-4-[3-[3-isobutyl-6-(trifluoromethyl)benzothiophen-2-yl]propionyl]phenyl]propionic acid] | 60.9% | Inactive | Inactive | 
11 | Cc1cc(C(=O)CCc2sc3cc(C(F)(F)F)ccc3c2C(C)C)ccc1CCC(=O)O [Example 12, 3-[2-methyl-4-[3-[3-isopropyl-6-(trifluoromethyl)benzothiophen-2-yl]propionyl]phenyl]propionic acid] | 87.3% | Inactive | Inactive | 
12 | Cc1cc(C(CCc2sc3cc(C(F)(F)F)ccc3c2C(C)C)=NO)ccc1CCC(=O)O [Example 13, 3-[4-[1-Hydroxyimino-3-[3-isopropyl-6-(trifluoromethyl)-benzothiophen-2-yl]propyl]-2-methylphenyl]propionic acid] | 90.4% | Inactive | Inactive | 
13 | C=C(CCc1sc2cc(C(F)(F)F)ccc2c1C(C)C)c1ccc(CCC(=O)O)c(C)c1 [Example 14, 3-[4-[1-[2-[3-Isopropyl-6-(trifluoromethyl)-benzothiophen-2-yl]ethyl]vinyl]-2-methylphenyl]propionic acid] | 73% | Inactive | Inactive | 
14 | Cc1cc(C(=O)CCc2sc3cc(C(F)(F)F)ccc3c2C(C)C)ccc1OCC(=O)O [Example 15, 4-[3-[3-Isopropyl-6-(trifluoromethyl)benzothiophen-2-yl]-propionyl]-2-methylphenoxyacetic acid] | 77.4% | Inactive | Inactive | 
15 | Cc1cc(C(CCc2sc3cc(C(F)(F)F)ccc3c2C(C)C)=NO)ccc1OCC(=O)O [Example 16, 4-[1-Hydroxyimino-3-[3-isopropyl-6-(trifluoromethyl)-benzothiophen-2-yl]propyl]-2-methyl-phenoxyacetic acid] | 51.7% | Inactive | Inactive | 
16 | CON=C(CCc1sc2cc(C(F)(F)F)ccc2c1C(C)C)c1ccc(OCC(=O)O)c(C)c1 [Example 17, 4-[3-[3-Isopropyl-6-(trifluoromethyl)benzothiophen-2-yl]-1-methoxyiminopropyl]-2-methylphenoxyacetic acid] | 45.9% | Inactive | Inactive | 
17 | Cc1cc2c(CCc3sc4cc(C(F)(F)F)ccc4c3C(C)C)noc2cc1OCC(=O)O [Example 19, [3-[2-[3-Isopropyl-6-(trifluoromethyl)benzothiophen-2-yl]-ethyl]-5-methyl-benzisoxazol-6-yloxy]acetic acid] | 91.7% | Inactive | Inactive | EC50 ([3]; CV-1 cells): 4.8 nM; selectivity of PPAR δ-activating effect [3]: superior to that of the GW-501516; EC50 ([1]; CV-1 cells): > 10 µM; EC50 ([2]; CV-1 cells): > 10 µM
18 | Cc1cc2c(CCc3sc4cc(C(F)(F)F)ccc4c3C(C)C)noc2cc1N(C)CC(=O)O [Example 20, N-[3-[2-[3-Isopropyl-6-(trifluoromethyl)benzothiophen-2-yl]ethyl]-5-methylbenzisoxazol-6-yl]-N-methylglycine] | 88% | Inactive |  | 
19 | Cc1cc2c(CCc3sc4cc(C(F)(F)F)ccc4c3C(C)C)noc2cc1CCC(=O)O [Example 21, 3-[3-[2-[3-Isopropyl-6-(trifluoromethyl)benzothiophen-2-yl]-ethyl]-5-methylbenzisoxazol-6-yl]propionic acid] | 94.2% | Inactive | Inactive | EC50 ([3]; CV-1 cells): 1.3 nM; selectivity of PPAR δ-activating effect [3]: superior to that of the GW-501516; EC50 ([1]; CV-1 cells): > 10 µM; EC50 ([2]; CV-1 cells): > 10 µM
20 | CCCc1c(CCC(=O)c2cc(C)c(OCC(=O)O)cc2O)sc2cc(C(F)(F)F)ccc12 [Example 22] |  |  |  | PPAR activity γ (relative value to control compound) [1]: Inactive; PPAR activity α (relative value to control compound) [2, 5]: Inactive
21 | CCCc1c(CCC(=NO)c2cc(C)c(OCC(=O)O)cc2O)sc2cc(C(F)(F)F)ccc12 [Example 23, 5-Hydroxy-4-[1-hydroxyimino-3-[3-propyl-6-(trifluoromethyl)benzothiophen-2-yl]propyl]-2-methyl-phenoxyacetic acid] |  |  |  | activation at 0.1 µM [3, 6]: 5.1%; PPAR activity γ (relative value to control compound) [1, 4]: Inactive; PPAR activity α (relative value to control compound) [2, 5]: Inactive
